Measurements: the supplement of paper PMC10331698
± gives the standard deviation of the averaged measurements.

Tests used:
Assay in all cases: level (log10 ratio to DMSO vehicle control); higher = higher biomarker level / cell amount than vehicle control
Details in all cases: in DMSO
[1] = compound: O=C(O)C(F)(F)C(F)(F)C(F)(F)C(F)(F)C(F)(F)C(F)(F)C(F)(F)C(F)(F)Cl [9-Chloro-perfluorononanoic acid]
Description: (§1)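 BioMAP Diversity Plus panel of 12 human primary cell co-culture systems (3C, 4H, LPS, SAg, BT, BF4T, BE3C, CASM3C, HDF3CGF, KF3CT, MyoF, Mphg). Compounds were added 1 h before stimulation and left for 24 h (MyoF 48 h; BT 72 h for soluble read-outs or 6 d for IgG). Biomarkers were read by ELISA, cytotoxicity by SRB, PBMC viability and proliferation by Alamar Blue. Each well value was divided by the mean of 8 DMSO control wells on the same plate and log10 transformed; duplicate blinded samples were tested at 4 concentrations.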

Perfluorohexanoic acid = compound: O=C(O)C(F)(F)C(F)(F)C(F)(F)C(F)(F)C(F)(F)F [Perfluorohexanoic acid]
Description: as §1

[2] = compound: O=S(=O)(O)C(F)(F)C(F)(F)C(F)(F)C(F)(F)C(F)(F)C(F)(F)C(F)(F)C(F)(F)F [Potassium perfluorooctanesulfonate]
Description: as §1

[3] = compound: O=P(O)(O)CCC(F)(F)C(F)(F)C(F)(F)C(F)(F)C(F)(F)C(F)(F)C(F)(F)C(F)(F)F [((Perfluorooctyl)ethyl)phosphonic acid]
Description: as §1

[4] = compound: O=C(O)C(F)(F)OC(F)(F)C(F)(F)OC(F)(F)C(F)(F)C(F)(F)C(F)(F)F [Perfluoro-3,6-dioxadecanoic acid]
Description: as §1

1H,1H-Heptafluorobutanol = compound: OCC(F)(F)C(F)(F)C(F)(F)F [1H,1H-Heptafluorobutanol]
Description: as §1

[5] = compound: CNS(=O)(=O)C(F)(F)C(F)(F)C(F)(F)C(F)(F)C(F)(F)C(F)(F)C(F)(F)C(F)(F)F [N-Methylperfluorooctanesulfonamide]
Description: as §1

| Test System | level (log10) ([1]; 6700 nM) | level (log10) ([1]; 20000 nM) | level (log10) (Perfluorohexanoic acid; 6700 nM) | level (log10) (Perfluorohexanoic acid; 20000 nM) | level (log10) (Perfluorohexanoic acid; 60000 nM) | level (log10) ([2]; 6700 nM) | level (log10) ([2]; 20000 nM) | level (log10) ([2]; 60000 nM) | level (log10) ([3]; 6700 nM) | level (log10) ([3]; 20000 nM) | level (log10) ([3]; 60000 nM) | level (log10) ([4]; 6700 nM) | level (log10) ([4]; 20000 nM) | level (log10) ([4]; 60000 nM) | level (log10) (1H,1H-Heptafluorobutanol; 6700 nM) | level (log10) (1H,1H-Heptafluorobutanol; 20000 nM) | level (log10) (1H,1H-Heptafluorobutanol; 60000 nM) | level (log10) ([5]; 6700 nM) | level (log10) ([5]; 20000 nM) | level (log10) ([5]; 60000 nM) |
| --- | --- | --- | --- | --- | --- | --- | --- | --- | --- | --- | --- | --- | --- | --- | --- | --- | --- | --- | --- | --- |
| lMphg:CD62E/E-Selectin | 0.01 ± 0.0099 | 0.017 ± 0.0042 | 0.0025 ± 0.016 | 0 ± 0.0014 | -0.014 ± 0.0042 | 0.0145 ± 0.0092 | 0.052 ± 0.023 | 0.204 | 0.011 ± 0.0014 | 0.027 ± 0.0085 | 0.113 ± 0.018 | 0.0095 ± 0.016 | -0.0035 ± 0.037 | 0.0135 ± 0.015 | -0.0085 ± 0.021 | 0.001 ± 0.017 | 0 ± 0.045 | -0.12 ± 0.034 | -0.214 ± 0.03 | -0.182 ± 0.058 |
| lMphg:CD69 | -0.049 ± 0.024 | -0.053 ± 0.016 | 0.005 ± 0.035 | -0.003 ± 0.0071 | -0.017 ± 0.0042 | -0.04 ± 0.0028 | -0.052 ± 0.02 | -0.074 ± 0.04 | -0.0125 ± 0.013 | -0.0425 ± 0.04 | 0.0275 ± 0.043 | -0.0505 ± 0.021 | -0.0425 ± 0.0021 | -0.196 ± 0.063 | -0.0555 ± 0.066 | -0.052 ± 0.098 | -0.0465 ± 0.066 | -0.0715 ± 0.03 | -0.0165 ± 0.013 | 0.061 ± 0.027 |
| lMphg:CD106/VCAM-1 | -0.011 ± 0.0099 | -0.016 ± 0.0071 | 0.0065 ± 0.016 | -0.0055 ± 0.011 | 0.0005 ± 0.018 | -0.012 ± 0.018 | 0.0015 ± 0.005 | -0.038 ± 0.017 | -0.013 ± 0.016 | -0.0455 ± 0.018 | -0.055 ± 0.0014 | -0.004 ± 0.018 | -0.0055 ± 0.021 | -0.0585 ± 0.039 | -0.001 | 0.008 ± 0.0028 | 0.01 ± 0.0085 | 0.015 ± 0.014 | 0.0515 ± 0.0092 | 0.0645 ± 0.026 |
| lMphg:CXCL8/IL-8 | -0.0145 ± 0.0078 | 0.0115 ± 0.025 | 0.045 ± 0.024 | 0.0515 ± 0.036 | 0.074 ± 0.023 | -0.0435 ± 0.005 | 0.0135 ± 0.03 | 0.094 ± 0.0028 | -0.0105 ± 0.025 | 0.0115 ± 0.028 | 0.148 ± 0.084 | 0.01 ± 0.0057 | 0.0595 ± 0.025 | 0.0695 ± 0.021 | 0.003 ± 0.055 | 0.0295 ± 0.036 | 0.0415 ± 0.021 | -0.0025 ± 0.0078 | 0.112 ± 0.022 | 0.118 ± 0.044 |
| lMphg:IL-1alpha | 0.014 ± 0.027 | 0.0635 ± 0.046 | 0.0035 ± 0.04 | 0 ± 0.011 | -0.009 ± 0.033 | -0.003 ± 0.028 | 0.0235 ± 0.015 | 0.0125 ± 0.012 | -0.014 ± 0.0099 | -0.0245 ± 0.025 | 0.02 ± 0.0042 | -0.0105 ± 0.056 | -0.021 ± 0.011 | 0.021 ± 0.011 | 0.0275 ± 0.04 | 0.008 ± 0.018 | 0.015 ± 0.0014 | 0.075 ± 0.017 | 0.132 ± 0.035 | 0.15 ± 0.013 |
| lMphg:M-CSF | -0.0055 ± 0.0021 | -0.0045 ± 0.0021 | 0.0005 ± 0.028 | -0.011 ± 0.028 | -0.023 ± 0.0014 | -0.0005 ± 0.005 | -0.004 ± 0.0057 | 0.035 ± 0.016 | -0.0235 ± 0.0064 | -0.039 ± 0.0057 | -0.0405 ± 0.0078 | -0.027 ± 0.045 | -0.0395 ± 0.0035 | -0.0475 ± 0.026 | -0.005 ± 0.017 | 0.0045 ± 0.016 | 0.0125 ± 0.019 | -0.046 ± 0.0028 | -0.0305 ± 0.016 | -0.0015 ± 0.021 |
| lMphg:SRB | 0.0105 ± 0.0092 | 0.013 ± 0.0042 | -0.019 ± 0.0085 | -0.0175 ± 0.0064 | -0.006 ± 0.0085 | -0.0065 ± 0.015 | -0.01 ± 0.0071 | -0.015 ± 0.011 | 0 ± 0.0071 | -0.0105 ± 0.0078 | -0.044 ± 0.0085 | -0.0135 ± 0.011 | -0.01 ± 0.0071 | -0.0705 ± 0.013 | -0.0045 ± 0.0064 | -0.002 ± 0.018 | -0.005 ± 0.0014 | -0.021 ± 0.021 | -0.0155 ± 0.00071 | -0.0265 ± 0.00071 |
| lMphg:SRB-Mphg | 0.01 ± 0.0042 | 0.0055 ± 0.018 | -0.0005 ± 0.011 | 0.003 ± 0.0071 | 0.0115 ± 0.0035 | 0.0005 ± 0.005 | 0.0005 ± 0.011 | 0.0115 ± 0.005 | 0.0005 ± 0.015 | -0.0055 ± 0.00071 | -0.0515 ± 0.022 | 0.012 ± 0.016 | 0.014 ± 0.024 | -0.0125 ± 0.03 | 0.005 ± 0.0028 | -0.009 ± 0.0042 | 0.006 ± 0.0099 | 0.0005 ± 0.0035 | 0 ± 0.0042 | -0.018 ± 0.02 |
| lMphg:sIL-10 | 0.0205 ± 0.0078 | -0.015 ± 0.0085 | -0.0285 ± 0.0092 | -0.0375 ± 0.046 | -0.0945 ± 0.021 | 0.015 ± 0.0014 | -0.0445 ± 0.0092 | -0.647 ± 0.025 | -0.0215 ± 0.012 | -0.062 ± 0.017 | -0.263 ± 0.025 | -0.023 ± 0.024 | -0.042 ± 0.023 | -0.561 ± 0.13 | -0.165 ± 0.033 | 0.032 ± 0.014 | -0.0565 ± 0.097 | -0.0935 ± 0.016 | -0.115 ± 0.03 | -0.169 ± 0.1 |
